Source: the NIST ThermoML archive (doi:10.1016/j.jct.2008.09.014)
Values joined by “and” are separate entries in the source; they are usually repeats but may differ in a detail not shown here. Equal entries are not always repeated. Numbers after ± are expanded uncertainties.

Conditions: Crystal; for vapor or sublimation pressure: Calculated from knudsen effusion weight loss

O=[N+]([O-])c1ccc2[nH]ccc2c1 [5-nitroindole]
Conditions | vapor or sublimation pressure
353.15 K | 9.42e-05 ± 4.7e-06 kPa and 9.3e-05 ± 4.7e-06 kPa
355.2 K | 0.0001148 ± 5.8e-06 kPa and 0.0001117 ± 5.6e-06 kPa
357.18 K | 0.0001368 ± 6.9e-06 kPa and 0.0001345 ± 6.7e-06 kPa and 0.000131 ± 6.6e-06 kPa
359.15 K | 0.0001667 ± 8.4e-06 kPa and 0.0001723 ± 8.6e-06 kPa and 0.0001702 ± 8.5e-06 kPa
361.19 K | 0.0001997 ± 1e-05 kPa and 0.000201 ± 1e-05 kPa
363.17 K | 0.0002441 ± 1.2e-05 kPa and 0.0002364 ± 1.2e-05 kPa
365.16 K | 0.0003138 ± 1.6e-05 kPa and 0.0003041 ± 1.5e-05 kPa and 0.0002935 ± 1.5e-05 kPa
367.19 K | 0.0003798 ± 1.9e-05 kPa and 0.0003685 ± 1.8e-05 kPa and 0.0003544 ± 1.8e-05 kPa
369.17 K | 0.0004448 ± 2.2e-05 kPa and 0.000439 ± 2.2e-05 kPa and 0.0004322 ± 2.2e-05 kPa
371.17 K | 0.0005523 ± 2.8e-05 kPa and 0.0005458 ± 2.7e-05 kPa and 0.0005326 ± 2.7e-05 kPa
373.19 K | 0.0006817 ± 3.4e-05 kPa and 0.0006526 ± 3.3e-05 kPa and 0.0006311 ± 3.2e-05 kPa
375.17 K | 0.0008006 ± 4e-05 kPa and 0.0007692 ± 3.9e-05 kPa

O=[N+]([O-])c1ccc2c(c1)CCN2 [5-nitroindoline]
Conditions | mass density [kg/m3]
298.15 K, 101.33 kPa, mass and volume measurement | 1390 ± 20

Conditions | vapor or sublimation pressure
338.09 K | 6.24e-05 ± 3.1e-06 kPa and 6.06e-05 ± 3e-06 kPa and 6.3e-05 ± 3.2e-06 kPa
340.12 K | 7.74e-05 ± 3.9e-06 kPa and 7.36e-05 ± 3.7e-06 kPa and 7.65e-05 ± 3.8e-06 kPa
342.2 K | 0.000101 ± 5.1e-06 kPa and 9.69e-05 ± 4.9e-06 kPa and 9.36e-05 ± 4.7e-06 kPa
344.08 K | 0.0001236 ± 6.2e-06 kPa and 0.0001184 ± 5.9e-06 kPa and 0.0001211 ± 6.1e-06 kPa
346.1 K | 0.0001521 ± 7.6e-06 kPa and 0.0001453 ± 7.3e-06 kPa and 0.0001435 ± 7.2e-06 kPa
348.19 K | 0.0001876 ± 9.4e-06 kPa and 0.0001782 ± 8.9e-06 kPa and 0.0001803 ± 9e-06 kPa
350.1 K | 0.000241 ± 1.2e-05 kPa and 0.0002364 ± 1.2e-05 kPa and 0.0002307 ± 1.2e-05 kPa
352.13 K | 0.0002958 ± 1.5e-05 kPa and 0.0002905 ± 1.5e-05 kPa and 0.0002792 ± 1.4e-05 kPa
354.19 K | 0.0003738 ± 1.9e-05 kPa and 0.0003438 ± 1.7e-05 kPa and 0.0003465 ± 1.7e-05 kPa
356.1 K | 0.0004193 ± 2.1e-05 kPa and 0.0004189 ± 2.1e-05 kPa and 0.0004131 ± 2.1e-05 kPa
358.12 K | 0.0005196 ± 2.6e-05 kPa and 0.0005153 ± 2.6e-05 kPa and 0.0005004 ± 2.5e-05 kPa
360.18 K | 0.0006675 ± 3.3e-05 kPa and 0.0006261 ± 3.1e-05 kPa and 0.0006157 ± 3.1e-05 kPa
